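In this assay, cells in 96-well plates receive the compound at five concentrations for 48 hours. Endpoints are linearly interpolated between the surrounding concentrations. Here, GI50 denotes the concentration required for 50% inhibition of growth.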 Activity calls are given as the source filed them. No stated cut-off is given here; in the data, active = GI50 up to about 1.1 µM and inactive = higher.
Tests used:
Assay in all cases: NCI anticancer screen, dose series, 48 h
[1] = system: 786-0
[2] = system: SK-MEL-5
[3] = system: NCI-H226
[4] = system: NCI-H522
[5] = system: RXF 393
[6] = system: OVCAR-4
[7] = system: MCF7
[8] = system: TK-10
[9] = system: MDA-N
[10] = system: SW-620
[11] = system: ACHN
[12] = system: A498
[13] = system: UACC-257
[14] = system: HT-29
[15] = system: UACC-62
[16] = system: IGROV-1
[17] = system: K562
[18] = system: M14
[19] = system: SK-MEL-28
[20] = system: SR
[21] = system: T47D
[22] = system: MDA-MB-231
[23] = system: HCC 2998
[24] = system: U-251
[25] = system: SNB-19
[26] = system: NCI-H23
[27] = system: KM12
[28] = system: A549
[29] = system: CCRF-CEM
[30] = system: SF-295
[31] = system: SK-OV-3
[32] = system: OVCAR-8
[33] = system: HL-60
[34] = system: SF-539
[35] = system: HOP-62
[36] = system: PC-3
[37] = system: Malme-3M
[38] = system: OVCAR-3
[39] = system: RPMI-8226
[40] = system: NCI-H460
[41] = system: LOX IMVI
[42] = system: MDA-MB-435
[43] = system: HOP-92
[44] = system: MOLT-4
[45] = system: OVCAR-5
[46] = system: SF-268
[47] = system: EKVX
[48] = system: COLO 205
[49] = system: HCT-116
[50] = system: SN12C
[51] = system: UO-31
[52] = system: BT-549
[53] = system: SNB-75
[54] = system: DU-145
[55] = system: CAKI-1
[56] = system: SK-MEL-2
[57] = system: HCT-15
[58] = system: NCI/ADR-RES
[59] = system: Hs-578T

For `Cc1nc2ccccc2c(=O)n1NC(=O)c1ccc(N)cc1`, the GI50 [1] was > 100 µM (inactive), the GI50 [2] was 17.8 µM (inactive) and the GI50 [3] was > 100 µM (inactive). For the same compound, the GI50 [4] was > 100 µM (inactive), the GI50 [5] was > 100 µM (inactive) and the GI50 [6] was > 100 µM (inactive). For the same compound, the GI50 [7] was > 100 µM (inactive), the GI50 [8] was > 100 µM (inactive) and the GI50 [9] was > 100 µM (inactive). The GI50 [10] was > 100 µM (inactive), the GI50 [11] was > 100 µM (inactive) and the GI50 [12] was > 100 µM (inactive). The GI50 [13] was > 100 µM (inactive), the GI50 [14] was > 100 µM (inactive) and the GI50 [15] was > 100 µM (inactive). For the same compound, the GI50 [16] was > 100 µM (inactive), the GI50 [17] was > 100 µM (inactive) and the GI50 [18] was > 100 µM (inactive). For the same compound, the GI50 [19] was > 100 µM (inactive), the GI50 [20] was > 100 µM (inactive) and the GI50 [21] was > 100 µM (inactive). The GI50 [22] was > 100 µM (inactive), the GI50 [23] was > 100 µM (inactive) and the GI50 [24] was > 100 µM (inactive). The GI50 [25] was > 100 µM (inactive), the GI50 [26] was > 100 µM (inactive) and the GI50 [27] was > 100 µM (inactive). The GI50 [28] was > 100 µM (inactive), the GI50 [29] was > 100 µM (inactive) and the GI50 [30] was > 100 µM (inactive). The GI50 [31] was > 100 µM (inactive), the GI50 [32] was > 100 µM (inactive) and the GI50 [33] was > 100 µM (inactive). For the same compound, the GI50 [34] was > 100 µM (inactive), the GI50 [35] was > 100 µM (inactive) and the GI50 [36] was > 100 µM (inactive). For the same compound, the GI50 [37] was > 100 µM (inactive), the GI50 [38] was > 100 µM (inactive) and the GI50 [39] was > 100 µM (inactive). For the same compound, the GI50 [40] was > 100 µM (inactive), the GI50 [41] was > 100 µM (inactive) and the GI50 [42] was > 100 µM (inactive). The GI50 [43] was > 100 µM (inactive), the GI50 [44] was > 100 µM (inactive) and the GI50 [45] was > 100 µM (inactive). For the same compound, the GI50 [46] was > 100 µM (inactive), the GI50 [47] was > 100 µM (inactive) and the GI50 [48] was > 100 µM (inactive). For the same compound, the GI50 [49] was > 100 µM (inactive), the GI50 [50] was > 100 µM (inactive) and the GI50 [51] was > 100 µM (inactive). For the same compound, the GI50 [52] was > 100 µM (inactive), the GI50 [53] was 14.6 µM (inactive) and the GI50 [54] was > 100 µM (inactive).

For `O=C(OCC(Cl)(Cl)Cl)N1CC[C@@H](C2CCCCC2)C1`, the GI50 [1] was 20.6 µM (inactive), the GI50 [2] was 18.1 µM (inactive) and the GI50 [4] was 21.7 µM (inactive). For the same compound, the GI50 [5] was 18.3 µM (inactive), the GI50 [6] was 18.6 µM (inactive) and the GI50 [7] was 22.1 µM (inactive). For the same compound, the GI50 [8] was 30.1 µM (inactive), the GI50 [9] was 31 µM (inactive) and the GI50 [11] was 22.8 µM (inactive). For the same compound, the GI50 [13] was 28.4 µM (inactive), the GI50 [15] was 27.7 µM (inactive) and the GI50 [16] was 75.5 µM (inactive). The GI50 [55] was 27 µM (inactive), the GI50 [17] was 21.5 µM (inactive) and the GI50 [56] was 18.3 µM (inactive). The GI50 [18] was 34.8 µM (inactive), the GI50 [20] was 32.2 µM (inactive) and the GI50 [21] was 32.7 µM (inactive). For the same compound, the GI50 [22] was 43.3 µM (inactive), the GI50 [23] was 18.6 µM (inactive) and the GI50 [24] was 0.1 µM (active). The GI50 [25] was 19.7 µM (inactive), the GI50 [26] was 20.2 µM (inactive) and the GI50 [27] was 17 µM (inactive). For the same compound, the GI50 [28] was 27.3 µM (inactive), the GI50 [29] was 21.5 µM (inactive) and the GI50 [30] was 19 µM (inactive). For the same compound, the GI50 [31] was 42.6 µM (inactive), the GI50 [35] was 20.4 µM (inactive) and the GI50 [36] was 21.2 µM (inactive). For the same compound, the GI50 [57] was 18.7 µM, the GI50 [38] was 18.1 µM (inactive) and the GI50 [40] was 21 µM (inactive). The GI50 [41] was 40.6 µM (inactive), the GI50 [42] was < 0.01 µM (active) and the GI50 [44] was 33.8 µM (inactive). The GI50 [45] was 23.7 µM (inactive), the GI50 [46] was 17.3 µM (inactive) and the GI50 [58] was 18 µM (inactive). The GI50 [47] was 23.1 µM (inactive), the GI50 [48] was 23.6 µM (inactive) and the GI50 [49] was 29.6 µM (inactive). For the same compound, the GI50 [50] was 29.3 µM (inactive), the GI50 [51] was 20.7 µM (inactive) and the GI50 [52] was 38.2 µM (inactive). The GI50 [53] was 21.7 µM (inactive) and the GI50 [54] was 35.6 µM (inactive).

With `CN(Cc1cc(Cl)cc(Cl)c1)CC(C(=O)c1ccccc1)c1ccccc1` (stereo not drawn) the GI50 [1] was 2.49 µM (inactive), the GI50 [2] was 10.5 µM (inactive) and the GI50 [3] was 5.5 µM (inactive). The GI50 [4] was 1.54 µM (inactive), the GI50 [5] was 4 µM (inactive) and the GI50 [6] was 2.07 µM (inactive). For the same compound, the GI50 [7] was 3.73 µM (inactive), the GI50 [8] was 6.37 µM (inactive) and the GI50 [10] was 0.326 µM (active). The GI50 [11] was 0.445 µM (active), the GI50 [12] was 14.5 µM (inactive) and the GI50 [13] was 2.56 µM (inactive). For the same compound, the GI50 [14] was 1.12 µM (active), the GI50 [15] was 2.9 µM (inactive) and the GI50 [16] was 26.7 µM (inactive). For the same compound, the GI50 [55] was 1.03 µM (active), the GI50 [17] was 0.962 µM (active) and the GI50 [56] was 10.2 µM (inactive). For the same compound, the GI50 [18] was 2.98 µM (inactive), the GI50 [19] was 2.9 µM (inactive) and the GI50 [20] was 0.473 µM (active). For the same compound, the GI50 [21] was 2.02 µM (inactive), the GI50 [22] was 6.81 µM (inactive) and the GI50 [24] was 1.38 µM (inactive). For the same compound, the GI50 [25] was 14.4 µM (inactive), the GI50 [26] was 1.7 µM (inactive) and the GI50 [27] was 3.78 µM (inactive). For the same compound, the GI50 [28] was 23.3 µM (inactive), the GI50 [29] was < 0.0439 µM (active) and the GI50 [30] was 27 µM (inactive). The GI50 [31] was 10.6 µM (inactive), the GI50 [32] was 4.2 µM (inactive) and the GI50 [33] was 1.65 µM (inactive). For the same compound, the GI50 [34] was 5.77 µM (inactive), the GI50 [35] was 24.8 µM (inactive) and the GI50 [36] was 4.91 µM (inactive). The GI50 [37] was 8 µM (inactive), the GI50 [57] was 0.368 µM and the GI50 [38] was 0.605 µM (active). The GI50 [39] was 0.1 µM (active), the GI50 [40] was 27.5 µM (inactive) and the GI50 [41] was 1.65 µM (inactive). The GI50 [42] was 3.61 µM (inactive), the GI50 [43] was 7.33 µM (inactive) and the GI50 [44] was 0.684 µM (active). The GI50 [45] was 6.21 µM (inactive), the GI50 [46] was 13.7 µM (inactive) and the GI50 [58] was 1.57 µM (inactive). The GI50 [47] was 16.7 µM (inactive), the GI50 [48] was 3.92 µM (inactive) and the GI50 [49] was 0.689 µM (active). For the same compound, the GI50 [50] was 4.67 µM (inactive), the GI50 [51] was 6.46 µM (inactive) and the GI50 [52] was 3.06 µM (inactive). For the same compound, the GI50 [53] was 7.48 µM (inactive), the GI50 [59] was 3.15 µM (inactive) and the GI50 [54] was 4.69 µM (inactive).
